Laboratory results from paper PMC11490619, “Discovery of Trypanosoma brucei inhibitors enabled by a unified synthesis of diverse sulfonyl fluorides” (Communications Chemistry, 2024).

What was measured:
[1] = tested on: T1, Trypanosoma brucei brucei bloodstream forms; test: microbe, parasite or virus in culture; parameters: Resazurin viability of bloodstream form parasites, fluorescence 560/590 nm, dose-response, initial screen n = 1; settings: initial screen, n = 1, 0.5% DMSO
T1 construct: 427 single marker, bloodstream form
Description: Cell viability assays were carried out in 96 well plates with 200 µL of culture per well as described previously. For this study we used bloodstream forms (BSF) of Trypanosoma brucei brucei strain 427 single marker. Axenic cultures of parasites were maintained at the logarithmic phase of cell proliferation (density below 2 ×10^6 parasites/mL) by successive passages in HMI-11 media supplemented with 10% heat inactivated foetal calf serum and 2.5 mg/L geneticin (Ge418) at 37°C under an atmosphere of 5% CO2. Parasites were seeded at 5 ×10^3 cells/mL and incubated with drug for 66 hours. The plate included wells containing the positive control pentamidine (100 nM) and the negative control of 0.5% DMSO. After 66 hours, 10 µL of 1.1 mg/mL Resazurin sodium salt was added in PBS and incubated for a further 6 hours. Plates were then read on a plate reader using excitation/emission 560/590 nm. EC50 values and errors were calculated using a sigmoidal dose response fitting algorithm. The initial screen was performed at n = 1 with follow-up screen of hits n = 4 technical replicates. The set of diverse sulfonyl fluoride probes was screened against Trypanosoma brucei brucei bloodstream forms in 96-well plate format (final concentrations: 0.1–100 μM in 0.5% dimethyl sulfoxide (DMSO); n = 1) (Fig. 3b). […]

[2] = molecular target: T2, T. brucei glycerol kinase (Q38DF0) (Trypanosoma brucei, UniProt Q38DF0); test: modified-peptide LC-MS/MS after click to cleavable biotin-azide; type: binding; settings: covalent; labelled compound; parasite lysate; site S137, T138 or Y139
T2 construct: gene Tb09.211.3570; native protein in parasite lysate
T2 sequence (Q38DF0 entry or part of it): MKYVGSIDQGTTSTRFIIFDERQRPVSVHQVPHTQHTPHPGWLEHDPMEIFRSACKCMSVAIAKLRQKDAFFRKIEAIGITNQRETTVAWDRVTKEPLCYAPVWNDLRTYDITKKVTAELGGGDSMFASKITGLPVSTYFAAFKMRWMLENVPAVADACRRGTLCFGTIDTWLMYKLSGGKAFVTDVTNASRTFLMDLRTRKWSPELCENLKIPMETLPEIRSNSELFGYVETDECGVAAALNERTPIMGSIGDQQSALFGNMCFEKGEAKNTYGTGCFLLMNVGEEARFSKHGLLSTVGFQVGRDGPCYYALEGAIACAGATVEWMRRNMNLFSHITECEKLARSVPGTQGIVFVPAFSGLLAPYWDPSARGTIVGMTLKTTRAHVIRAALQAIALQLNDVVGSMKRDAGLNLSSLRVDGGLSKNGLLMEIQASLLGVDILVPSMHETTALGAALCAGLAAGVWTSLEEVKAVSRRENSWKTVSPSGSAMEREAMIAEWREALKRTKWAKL

[3] = molecular target: T3, prolyl endo-/oligo-peptidase S9 (Q38AG2) (Trypanosoma brucei, UniProt Q38AG2); test: C-1alk click biotin pulldown, LFQ LC-MS/MS; type: biochemical; settings: covalent; labelled compound; parasite lysate; 1.5 uM C-1alk, 1 h, 25 C
T3 construct: gene Tb10.6k15.2520; native protein in parasite lysate
T3 sequence (Q38AG2 entry or part of it, one chain of several): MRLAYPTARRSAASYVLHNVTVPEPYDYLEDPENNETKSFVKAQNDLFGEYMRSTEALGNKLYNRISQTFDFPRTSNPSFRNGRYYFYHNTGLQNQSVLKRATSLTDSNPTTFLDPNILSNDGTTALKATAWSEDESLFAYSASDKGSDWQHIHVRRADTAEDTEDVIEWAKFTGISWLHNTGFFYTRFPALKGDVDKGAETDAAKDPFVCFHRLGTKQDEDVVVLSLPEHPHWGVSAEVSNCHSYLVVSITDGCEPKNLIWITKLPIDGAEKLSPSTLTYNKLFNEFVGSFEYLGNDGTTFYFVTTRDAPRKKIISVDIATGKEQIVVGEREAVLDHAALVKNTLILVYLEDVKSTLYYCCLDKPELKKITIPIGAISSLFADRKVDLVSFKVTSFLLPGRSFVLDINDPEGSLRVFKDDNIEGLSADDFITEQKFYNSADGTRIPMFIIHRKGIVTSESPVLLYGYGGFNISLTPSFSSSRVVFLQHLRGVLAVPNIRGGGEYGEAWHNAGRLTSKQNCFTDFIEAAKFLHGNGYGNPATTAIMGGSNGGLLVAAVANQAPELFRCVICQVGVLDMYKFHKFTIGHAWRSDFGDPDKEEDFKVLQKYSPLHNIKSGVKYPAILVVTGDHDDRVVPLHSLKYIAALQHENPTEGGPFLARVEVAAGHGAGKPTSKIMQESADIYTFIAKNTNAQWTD

[4] = molecular target: T4, lyso-phospholipase (D6XM23) (Trypanosoma brucei, UniProt D6XM23); test: C-1alk click biotin pulldown, LFQ LC-MS/MS; type: biochemical; settings: covalent; labelled compound; parasite lysate; 1.5 uM C-1alk, 1 h, 25 C
T4 construct: gene Tb08.11J15.160; native protein in parasite lysate, about 30 kDa
T4 sequence (D6XM23 entry or part of it): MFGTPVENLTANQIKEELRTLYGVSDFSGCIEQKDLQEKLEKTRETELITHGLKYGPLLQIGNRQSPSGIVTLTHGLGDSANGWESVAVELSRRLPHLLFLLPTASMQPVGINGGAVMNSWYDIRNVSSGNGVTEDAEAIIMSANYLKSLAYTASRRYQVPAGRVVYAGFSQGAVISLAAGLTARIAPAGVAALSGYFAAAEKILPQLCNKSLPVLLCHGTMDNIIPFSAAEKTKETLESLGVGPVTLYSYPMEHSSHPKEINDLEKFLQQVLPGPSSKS

Work on CC(C)(C)OC(=O)N1CCCC1c1ccc(S(=O)(=O)F)cn1 (stereo not shown) [C-1] yielded an EC50 [1] of 330 nM.

For C#CCOC(=O)N1CCCC1c1ccc(S(=O)(=O)F)cn1 (stereo not shown) [C-1alk], the “modified-peptide LC-MS/MS after click to cleavable biotin-azide” value [2] was “identify peptides matching the expected mass shift for T. brucei glycerol kinase (Q38DF0)”, the “C-1alk click biotin pulldown, LFQ LC-MS/MS” value [3] was “prolyl endo-/oligo-peptidase S9 (Q38AG2), which had been previously enriched with our C-1alk probe” and the “C-1alk click biotin pulldown, LFQ LC-MS/MS” value [4] was “Lyso-phospholipase emerged as the sole common hit labelled by both C-1alk and FP-biotin”.
